Common to all, as to assay: KINOMEscan competition binding
Conditions in all cases: compound 10.0 µM

The test system of test [1] is EGFR (human), P00533 [746-750 del].
The subject of test [2] is ABL1 (human), P00519 [T315I].
The subject of test [3] is PIK3CA (human), P42336 [Q546K].
In test [4] the test system is PIK3CA (human), P42336 [H1047Y].
Test [5] concerns PIK3CA (human), P42336 [E545K].
In test [6] the test system is KIT (human), P10721 [V559D/T670I].
Test [7] deals with ABL1 (human), P00519 [M351T].
The test system of test [8] is PIK3CA (human), P42336 [C420R].
Chain of PIK3CA (human), P42336 [C420R] (P42336 whole entry C420R, looked up): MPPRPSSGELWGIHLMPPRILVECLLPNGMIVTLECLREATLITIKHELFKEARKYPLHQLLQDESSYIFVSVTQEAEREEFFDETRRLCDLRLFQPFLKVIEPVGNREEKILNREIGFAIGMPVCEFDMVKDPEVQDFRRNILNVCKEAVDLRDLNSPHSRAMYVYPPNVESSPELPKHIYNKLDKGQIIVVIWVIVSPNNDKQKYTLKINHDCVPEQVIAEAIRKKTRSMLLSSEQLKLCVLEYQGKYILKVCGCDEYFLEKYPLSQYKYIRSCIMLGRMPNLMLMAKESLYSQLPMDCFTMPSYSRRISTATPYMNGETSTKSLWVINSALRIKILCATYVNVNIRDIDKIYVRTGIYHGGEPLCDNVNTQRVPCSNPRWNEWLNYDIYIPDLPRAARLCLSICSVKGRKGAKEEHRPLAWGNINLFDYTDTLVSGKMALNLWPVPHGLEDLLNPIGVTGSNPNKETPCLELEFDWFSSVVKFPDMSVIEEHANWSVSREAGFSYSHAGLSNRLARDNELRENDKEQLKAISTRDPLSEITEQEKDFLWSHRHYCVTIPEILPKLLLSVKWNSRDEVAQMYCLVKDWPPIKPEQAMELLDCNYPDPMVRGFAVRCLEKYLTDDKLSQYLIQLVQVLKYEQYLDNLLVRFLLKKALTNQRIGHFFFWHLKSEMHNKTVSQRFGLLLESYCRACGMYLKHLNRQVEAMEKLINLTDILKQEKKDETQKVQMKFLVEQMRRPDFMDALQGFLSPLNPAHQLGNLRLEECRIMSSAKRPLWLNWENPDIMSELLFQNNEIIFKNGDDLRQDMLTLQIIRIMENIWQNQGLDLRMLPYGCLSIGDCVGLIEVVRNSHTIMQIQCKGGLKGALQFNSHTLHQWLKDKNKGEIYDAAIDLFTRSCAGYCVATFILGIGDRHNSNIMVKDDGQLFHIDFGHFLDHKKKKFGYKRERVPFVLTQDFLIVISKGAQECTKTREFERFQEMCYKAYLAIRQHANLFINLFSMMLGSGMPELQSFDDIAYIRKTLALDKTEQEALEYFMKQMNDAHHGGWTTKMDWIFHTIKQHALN
In test [9] the test system is ABL1 (human), P00519 [E255K].
In test [10] the test system is KIT (human), P10721 [D816V].
Chain of KIT (human), P10721 [D816V] (P10721 whole entry D816V, looked up): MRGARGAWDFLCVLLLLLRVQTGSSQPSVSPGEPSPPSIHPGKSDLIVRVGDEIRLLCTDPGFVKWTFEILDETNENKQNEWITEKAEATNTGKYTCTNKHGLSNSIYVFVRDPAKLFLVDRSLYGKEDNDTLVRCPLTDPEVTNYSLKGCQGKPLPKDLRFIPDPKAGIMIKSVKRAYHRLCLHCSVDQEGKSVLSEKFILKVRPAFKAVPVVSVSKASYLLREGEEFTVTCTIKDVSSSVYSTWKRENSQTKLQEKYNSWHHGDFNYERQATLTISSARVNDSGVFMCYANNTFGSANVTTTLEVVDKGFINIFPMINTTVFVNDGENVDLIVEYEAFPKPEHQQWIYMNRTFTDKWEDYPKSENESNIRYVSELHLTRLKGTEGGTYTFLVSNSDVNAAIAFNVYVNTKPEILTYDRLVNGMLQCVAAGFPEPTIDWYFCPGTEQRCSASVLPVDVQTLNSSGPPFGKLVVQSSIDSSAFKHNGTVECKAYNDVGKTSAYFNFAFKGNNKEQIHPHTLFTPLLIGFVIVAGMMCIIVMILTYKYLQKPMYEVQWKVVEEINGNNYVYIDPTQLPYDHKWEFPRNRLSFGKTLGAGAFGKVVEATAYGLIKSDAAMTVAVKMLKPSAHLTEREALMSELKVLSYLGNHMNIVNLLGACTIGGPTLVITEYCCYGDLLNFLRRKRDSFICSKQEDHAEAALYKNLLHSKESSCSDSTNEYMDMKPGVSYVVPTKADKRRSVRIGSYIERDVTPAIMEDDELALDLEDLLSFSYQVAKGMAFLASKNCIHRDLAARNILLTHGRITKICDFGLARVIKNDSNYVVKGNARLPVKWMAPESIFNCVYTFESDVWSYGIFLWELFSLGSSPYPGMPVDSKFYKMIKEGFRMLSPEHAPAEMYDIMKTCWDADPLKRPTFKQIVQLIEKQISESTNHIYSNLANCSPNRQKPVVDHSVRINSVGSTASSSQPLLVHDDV
For test [11], the system named is FLT3 (human), P36888 [N841I].
Test [12] has as its system ABL1 (human), P00519 [Q252H].
For test [13], the system named is EGFR (human), P00533 [G719S].
Test [14] deals with EIF2AK4 KD2 (human), Q9P2K8 [S808G].
Chain of EIF2AK4 KD2 (human), Q9P2K8 [S808G] (Q9P2K8 whole entry S808G, looked up): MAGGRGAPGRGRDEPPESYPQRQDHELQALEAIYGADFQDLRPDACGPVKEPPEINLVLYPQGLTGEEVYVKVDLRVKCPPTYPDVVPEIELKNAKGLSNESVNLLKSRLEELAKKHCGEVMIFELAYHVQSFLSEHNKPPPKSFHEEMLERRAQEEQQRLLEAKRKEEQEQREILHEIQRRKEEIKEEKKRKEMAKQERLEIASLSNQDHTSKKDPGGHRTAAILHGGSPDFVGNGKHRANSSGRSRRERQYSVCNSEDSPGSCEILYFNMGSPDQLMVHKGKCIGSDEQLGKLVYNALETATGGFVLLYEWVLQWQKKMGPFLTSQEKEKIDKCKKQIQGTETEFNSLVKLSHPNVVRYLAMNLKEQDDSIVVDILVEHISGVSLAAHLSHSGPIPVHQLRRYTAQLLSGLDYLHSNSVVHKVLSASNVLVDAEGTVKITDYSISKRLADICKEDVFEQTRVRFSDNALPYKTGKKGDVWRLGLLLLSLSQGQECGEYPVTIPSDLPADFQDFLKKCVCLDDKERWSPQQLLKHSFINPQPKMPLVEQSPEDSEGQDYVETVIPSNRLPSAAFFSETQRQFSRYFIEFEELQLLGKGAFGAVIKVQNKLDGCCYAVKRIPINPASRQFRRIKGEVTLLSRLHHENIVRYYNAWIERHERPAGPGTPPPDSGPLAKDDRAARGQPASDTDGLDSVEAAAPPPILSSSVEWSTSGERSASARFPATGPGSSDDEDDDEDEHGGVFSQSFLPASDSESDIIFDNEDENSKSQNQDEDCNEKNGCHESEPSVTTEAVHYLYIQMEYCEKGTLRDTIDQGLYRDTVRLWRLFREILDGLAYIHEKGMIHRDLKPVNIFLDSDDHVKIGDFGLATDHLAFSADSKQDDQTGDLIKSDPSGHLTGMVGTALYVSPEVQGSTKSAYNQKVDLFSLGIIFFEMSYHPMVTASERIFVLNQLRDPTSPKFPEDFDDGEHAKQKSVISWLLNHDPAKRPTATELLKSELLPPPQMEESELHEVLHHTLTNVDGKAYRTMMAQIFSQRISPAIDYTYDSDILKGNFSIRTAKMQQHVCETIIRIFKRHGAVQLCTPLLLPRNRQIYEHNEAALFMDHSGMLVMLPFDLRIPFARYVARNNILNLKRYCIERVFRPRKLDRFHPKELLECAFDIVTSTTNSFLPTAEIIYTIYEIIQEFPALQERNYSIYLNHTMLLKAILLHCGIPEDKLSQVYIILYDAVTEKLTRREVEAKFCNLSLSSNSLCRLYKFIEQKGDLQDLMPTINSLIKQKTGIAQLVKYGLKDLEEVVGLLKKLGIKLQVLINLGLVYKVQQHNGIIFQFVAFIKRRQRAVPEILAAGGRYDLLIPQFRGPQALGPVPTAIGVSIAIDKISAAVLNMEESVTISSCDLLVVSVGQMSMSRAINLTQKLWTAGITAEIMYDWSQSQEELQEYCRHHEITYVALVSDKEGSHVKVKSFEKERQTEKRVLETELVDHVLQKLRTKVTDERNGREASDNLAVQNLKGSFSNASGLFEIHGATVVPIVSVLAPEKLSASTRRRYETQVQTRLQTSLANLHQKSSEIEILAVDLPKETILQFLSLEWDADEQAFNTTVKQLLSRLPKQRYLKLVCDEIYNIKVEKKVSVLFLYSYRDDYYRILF
Test [15] deals with PIK3CA (human), P42336 [E545A].
Chain of PIK3CA (human), P42336 [E545A] (P42336 whole entry E545A, looked up): as the sequence (P42336 whole entry C420R, looked up) above, with R420C, E545A counted along it
The subject of test [16] is KIT (human), P10721 [V559D].
Test [17] concerns EGFR (human), P00533 [P753S; 747-752 del].
Test [18] deals with FLT3 (human), P36888 [ITD].
In test [19] the test system is EGFR (human), P00533 [L861Q].
Test [20] relates to FLT3 (human), P36888 [K663Q].

Our source for the kinase still bound, per cent of control values is the kinase profiling compilation of Christmann-Franck et al. (2016).

Chain of PIK3CA (human), P42336 [Q546K] (P42336 whole entry Q546K, looked up): as the sequence (P42336 whole entry C420R, looked up) above, with R420C, Q546K counted along it
Chain of KIT (human), P10721 [V559D] (P10721 whole entry V559D, looked up): as the sequence (P10721 whole entry D816V, looked up) above, with V559D, V816D counted along it
Chain of KIT (human), P10721 [V559D/T670I] (P10721 whole entry V559D/T670I, looked up): as the sequence (P10721 whole entry D816V, looked up) above, with V559D, T670I, V816D counted along it
Chain of PIK3CA (human), P42336 [E545K] (P42336 whole entry E545K, looked up): as the sequence (P42336 whole entry C420R, looked up) above, with R420C, E545K counted along it
Chain of PIK3CA (human), P42336 [H1047Y] (P42336 whole entry H1047Y, looked up): as the sequence (P42336 whole entry C420R, looked up) above, with R420C, H1047Y counted along it

Consider `Cc1cn(-c2cc(C(=O)Nc3ccc(C)c(NC(=O)c4ccno4)c3)cc(C(F)(F)F)c2)cn1`, for which the kinase still bound, per cent of control in test [1], in test [2], in test [3], in test [4], in test [5] and in test [6] was 100% throughout. Moreover, the kinase still bound, per cent of control in [7] came to 11%; in test [8], 100%; in test [9] it was 18%; in test [10] it was 27%; in test [11], 100%; in test [12] it was 13%. For the same compound, the kinase still bound, per cent of control in test [13] worked out at 100%; in test [14] it was 100%; in test [15], 100%; in test [16], 0.15%; in test [17] it was 100%; in test [18] it was 100%. Further, the kinase still bound, per cent of control in test [19] and in test [20] was 100% each time.
Take `CS(=O)(=O)N1CCN(Cc2cc3nc(-c4cccc5[nH]ncc45)nc(N4CCOCC4)c3s2)CC1`: the kinase still bound, per cent of control in test [1] came out at 100%; in test [2], 100%; in test [3] it was 0.35%; in test [4], 14%; in test [5], 0.3%; in [6], 100%. Further, the kinase still bound, per cent of control in test [7], in [9], in [10], in [11], in [12] and in test [13] was 100% each time. The kinase still bound, per cent of control in test [14] was 100%; in test [15], 0.35%; in [16], 100%; in test [17], 100%; in test [18] it was 100%; in test [19], 100%. Moreover, in [20], the kinase still bound, per cent of control was determined as 100%.
Take `CCOc1cc(N2CCC(O)CC2)ccc1Nc1ncc2c(n1)N(C)c1ccccc1C(=O)N2C`: the kinase still bound, per cent of control in test [1], in test [2], in [3], in test [4], in [5] and in test [6] was 100% throughout. Besides, the kinase still bound, per cent of control in test [7], in test [8], in test [9], in test [10], in test [11] and in test [12] was 100% throughout. The kinase still bound, per cent of control in test [13], in [14], in [15], in test [16], in [17] and in test [18] was 100% each time. Further, the kinase still bound, per cent of control in test [19] and in test [20] was 100% throughout.
With `COc1cc(N2CCN(C)CC2)ccc1Nc1ncc2c(n1)N(C)c1ccccc1C(=O)N2C`, the kinase still bound, per cent of control in test [1], in [2], in test [3], in [4], in test [5] and in test [6] was 100% throughout. For the same compound, the kinase still bound, per cent of control in test [7], in test [8], in test [9], in [10], in [11] and in test [12] was 100% each time. Moreover, the kinase still bound, per cent of control in test [13], in [14], in [15], in test [16], in [17] and in test [18] was 100% in each case. Also, the kinase still bound, per cent of control in test [19] and in [20] was 100% in each case.
As to `CCN(CC)CCCCNc1ncc2c(n1)N(C)C(=O)N(c1c(Cl)c(OC)cc(OC)c1Cl)C2`, the kinase still bound, per cent of control in [1], in test [2], in test [3], in test [4], in [5] and in test [6] was 100% in each case. Further, the kinase still bound, per cent of control in [7], in test [8], in test [9], in test [10], in test [11] and in [12] was 100% throughout. Moreover, the kinase still bound, per cent of control is 100% in [13]; 9.5% in test [14]; 100% in test [15]; 6.1% in test [16]; 100% in [17]; 100% in test [18]. Also, the kinase still bound, per cent of control in [19] and in test [20] was 100% throughout.
Take `C=CC(=O)Nc1ccc(CN(C(=O)Nc2c(Cl)c(OC)cc(OC)c2Cl)c2cc(Nc3ccc(N4CCN(C)CC4)cc3)ncn2)cc1`: the kinase still bound, per cent of control in [1] came out at 0.6%; in test [2], 6.4%; in test [5] it was 100%; in test [6], 29%; in test [7] it was 16%; in test [9], 100%. Besides, the kinase still bound, per cent of control in [10] came to 7.2%; in [11] it was 8.4%; in [12], 14%; in [13], 0.15%; in [14], 1.5%; in [16], 0.1%. The kinase still bound, per cent of control stood at 0.45% in [17], 100% in test [18], 0.1% in test [19] and 21% in [20].
In the case of `COc1cc(N2CCC(C(N)=O)CC2)ccc1Nc1nc(N)c(Cl)c(Nc2ccccc2S(=O)(=O)C(C)C)n1`, the kinase still bound, per cent of control in [1] was 0%; in test [2], 100%; in [5], 100%; in test [6], 100%; in test [7], 100%; in [9] it was 100%. The kinase still bound, per cent of control in [10] worked out at 24%; in test [11] it was 13%; in test [12], 100%; in test [13] it was 21%; in test [14], 100%; in test [16], 100%. For the same compound, the kinase still bound, per cent of control in [17] stood at 2.9%; in test [18] it was 20%; in [19] it was 0.3%; in [20] it was 100%.
